Source: patent US20020028938A1, “Prostaglandin endoperoxide H synthase biosynthesis inhibitors” (priority 1997, published 2002)

Compound	melting point
Cc1n[nH]c(=O)c(-c2ccc(F)cc2)c1-c1ccc(S(C)(=O)=O)cc1 [Example 63, 4-(4-Fluorophenyl)-5-[4-(methylsulfonyl)phenyl]-6-methyl-3(2H)-pyridazinone]	290 °C (dec.)
CS(=O)(=O)c1ccc(-c2cnn(CC(=O)c3csc4ccccc34)c(=O)c2-c2ccc(F)cc2)cc1 [Example 57, 2-[2-(Benzo[b]thien-3-yl)-2-oxoethyl]-4-(4-fluorophenyl)-5-[4-(methylsulfonyl)phenyl]-3(2H)-pyridazinone]	183 to 184 °C
CS(=O)(=O)c1ccc(-c2cnn(Cc3cc4ccccc4s3)c(=O)c2-c2ccc(F)cc2)cc1 [Example 61, 2-(2-Benzo[b]thienylmethyl)-4-(4-fluorophenyl)-5-[4-(methylsulfonyl)phenyl]-3(2H)-pyridazinone]	93 to 96 °C
CS(=O)(=O)c1ccc(-c2cnn(CC(=O)c3ccc(OC(F)(F)F)cc3)c(=O)c2-c2ccc(F)cc2)cc1 [Example 55, 2-(4-Trifluoromethoxyphenacyl)-4-(4-fluorophenyl)-5-[4-(methylsulfonyl)phenyl]-3(2H)-pyridazinone]	160 to 161 °C
Cc1ccc(-c2c(-c3ccc(S(C)(=O)=O)cc3)cnn(CC(F)(F)F)c2=O)cc1 [Example 79, 2-(2,2,2-Trifluoroethyl)-4-(4-methylphenyl)-5-[4-(methylsulfonyl)phenyl]-3(2H)-pyridazinone]	154 to 156 °C
CS(=O)(=O)c1ccc(-c2cnn(CC(=O)c3ccc(C#N)cc3)c(=O)c2-c2ccc(F)cc2)cc1 [Example 49, 2-(4-Cyanophenacyl)-4-(4-fluorophenyl)-5-[4-(methylsulfonyl)phenyl]-3(2H)-pyridazinone]	188 to 189 °C
CS(=O)(=O)c1ccc(-c2cnn(Cc3cccc([N+](=O)[O-])c3)c(=O)c2-c2ccc(F)cc2)cc1 [Example 116, 2-(3-Nitrobenzyl)-4-(4-fluorophenyl)-5-[4-(methylsulfonyl)phenyl]-3(2H)-pyridazinone]	156 to 157 °C
CC1CCCC1n1ncc(-c2ccc(S(C)(=O)=O)cc2)c(-c2ccc(F)cc2)c1=O (stereo not drawn) [Example 131, 2-(2-Methylcyclopentyl)-4-(4-fluorophenyl)-5-[4-(methylsulfonyl)phenyl]-3(2H)-pyridazinone]	180 to 181 °C
CCN(CC)c1ccc(C(=O)Cn2ncc(-c3ccc(S(C)(=O)=O)cc3)c(-c3ccc(F)cc3)c2=O)cc1 [Example 44, 2-(4-Diethylaminophenacyl)-4-(4-fluorophenyl)-5-[4-(methylsulfonyl)phenyl]-3(2H)-pyridazinone]	105 to 108 °C
CS(=O)(=O)c1ccc(-c2cnn(Cc3ccccc3)c(=O)c2Cl)cc1 [Example 78, 2-Benzyl-4-chloro-5-[4-(methylsulfonyl)phenyl]-3(2H)-pyridazinone]	166 to 167 °C
CS(=O)(=O)c1ccc(-c2cnn(Cc3ccc4cc(F)ccc4n3)c(=O)c2-c2ccc(F)cc2)cc1 [Example 30, 2-(6-Fluoroquinolin-2-ylmethyl)-4-(4-fluorophenyl)-5-[4-(methylsulfonyl)phenyl]-3(2H)-pyridazinone]	116 to 119 °C
CC(C)(O)CCOc1c(-c2ccc(S(N)(=O)=O)cc2)cnn(-c2ccc(F)cc2)c1=O [Example 470, 2-(4-Fluorophenyl)-4-(3-hydroxy-3-methyl-1-butoxy)-5-[4-(aminosulfonyl)phenyl]-3(2H)-pyridazinone]	163 to 164 °C
Cc1cc(C)cc(-n2ncc(-c3ccc(S(C)(=O)=O)cc3)c(-c3ccc(F)cc3)c2=O)c1 [Example 170, 2-(3,5-Dimethylphenyl)-4-(4-fluorophenyl)-5-[4-(methylsulfonyl)phenyl]-3(2H)-pyridazinone]	130 to 134 °C
CS(=O)(=O)c1ccc(-c2cnn(Cc3ccncc3)c(=O)c2-c2ccc(F)cc2)cc1 [Example 28, 2-(4-Pyridylmethyl)-4-(4-fluorophenyl)-5-[4-(methylsulfonyl)phenyl]-3(2H)-pyridazinone]	153 to 156 °C
CS(=O)(=O)c1ccc(-c2cn[nH]c(=O)c2-c2ccc(F)cc2)cc1 [Example 11, 4-(4-Fluorophenyl)-5-[4-(methylsulfonyl)phenyl]-3(2H)-pyridazinone]	255 to 256 °C

The next lines start with the values.

melting point	Compound
143 to 145 °C	CON=C(C)COc1c(-c2ccc(S(C)(=O)=O)cc2)cnn(-c2ccc(F)c(F)c2)c1=O [Example 461, 2-(3,4-Difluorophenyl)-4-[2-(methoxyimino)-1-propoxy]-5-[4-(methylsulfonyl)phenyl]-3(2H)-pyridazinone]
90 to 92 °C	CCCC(CCOc1c(-c2ccc(S(C)(=O)=O)cc2)cnn(-c2ccc(F)cc2)c1=O)SC (stereo not drawn) [Example 433, 2-(4-Fluorophenyl)-4-(3-methylthio-1-hexyloxy)-5-[4-(methylsulfonyl)phenyl]-3(2H)-pyridazinone]
200 to 202 °C	CS(=O)(=O)c1ccc(-c2cnn(-c3ccsc3)c(=O)c2-c2ccc(F)cc2)cc1 [Example 179, 2-(3-Thienyl)-4-(4-fluorophenyl)-5-[4-(methylsulfonyl)phenyl]-3(2H)-pyridazinone]
199 to 201 °C	CS(=O)(=O)c1ccc(-c2cnn(-c3ccc(F)cc3)c(=O)c2-c2cccc(F)c2)cc1 [Example 458, 2-(4-Fluorophenyl)-4-(3-fluorophenyl)-5-[4-(methylsulfonyl)phenyl]-3(2H)-pyridazinone]
110 to 113 °C	COCCCNc1c(-c2ccc(S(C)(=O)=O)cc2)cnn(CC(F)(F)F)c1=O [Example 295, 2-(2,2,2-Trifluoroethyl)-4-(3-methoxylpropylamino)-5-[4-(methylsulfonyl)phenyl]-3(2H)-pyridazinone]
175 to 177 °C	CS(=O)(=O)c1ccc(-c2cnn(-c3ccc(F)cc3)c(=O)c2Cc2ccc(F)cc2)cc1 [Example 377, 2-(4-Fluorophenyl)-4-(4-fluorobenzyl)-5-[4-(methylsulfonyl)phenyl]-3(2H)-pyridazinone]
110 to 112 °C	CC(C)Oc1c(-c2ccc(S(C)(=O)=O)cc2)cnn(-c2cccc(F)c2)c1=O [Example 202, 2-(3-Fluorophenyl)-4-(2-propoxy)-5-[4-(methylsulfonyl)phenyl]-3(2H)-pyridazinone]
178 °C	Cc1ccc(Sc2c(-c3ccc(S(C)(=O)=O)cc3)cnn(-c3cccc(Cl)c3)c2=O)cc1 [Example 357, 2-(3-Chlorophenyl)-4-(4-methylphenylthio)-5-[4-(methylsulfonyl)phenyl]-3(2H)-pyridazinone]
122 to 124 °C	CC(C)(O)COc1c(-c2ccc(S(C)(=O)=O)cc2)cnn(-c2ccc(F)c(Cl)c2)c1=O [Example 479, 2-(3-Chloro-4-fluorophenyl)-4-(2-hydroxy-2-methyl-1-propoxy)-5-[4-(methylsulfonyl)phenyl]-3(2H)-pyridazinone]
97 to 101 °C	COc1ccc(-n2ncc(-c3ccc(S(C)(=O)=O)cc3)c(-c3ccc(F)cc3)c2=O)cc1F [Example 184, 2-(3-Fluoro-4-methoxyphenyl)-4-(4-fluorophenyl)-5-[4-(methylsulfonyl)phenyl]-3(2H)-pyridazinone]
154 to 156 °C	CS(=O)(=O)c1ccc(-c2cnn(CC(F)(F)F)c(=O)c2Nc2ccccc2)cc1 [Example 311, 2-(2,2,2-Trifluoroethyl)-4-anilino-5-[4-(methylsulfonyl)phenyl]-3(2H)-pyridazinone]
120 to 123 °C	NS(=O)(=O)c1ccc(-c2cnn(Cc3ccccc3)c(=O)c2Cc2ccc(F)cc2)cc1 [Example 383, 2-Benzyl-4-(4-fluorobenzyl)-5-[4-(aminosulfonyl)phenyl]-3(2H)-pyridazinone]
113 to 115 °C	COc1c(-c2ccc(S(C)(=O)=O)cc2)cnn(-c2ccc(F)c(F)c2)c1=O [Example 453, 2-(3,4-Difluorophenyl)-4-methoxy-5-[4-(methylsulfonyl)phenyl]-3(2H)-pyridazinone]
125 to 127 °C	CC(C)COc1c(-c2ccc(S(C)(=O)=O)cc2)cnn(-c2cccc(C(F)(F)F)c2)c1=O [Example 542, 2-[3-(Trifluoromethyl)phenyl]-4-(2-methyl-1-propoxy)-5-[4-(methylsulfonyl)phenyl]-3(2H)-pyridazinone]
192 to 195 °C	C=CCc1c(-c2ccc(S(C)(=O)=O)cc2)cnn(CC(F)(F)F)c1=O [Example 222, 2-(2,2,2-Trifluoroethyl)-4-(2-propenyl)-5-[4-(methylsulfonyl)phenyl]-3(2H)-pyridazinone]
160 to 162 °C	CC(C)Oc1c(-c2ccc(S(C)(=O)=O)cc2)cnn(-c2ccc(F)cc2)c1=O [Example 200, 2-(4-Fluorophenyl)-4-(2-propoxy)-5-[4-(methylsulfonyl)phenyl]-3(2H)-pyridazinone]
> 260 °C	CS(=O)(=O)c1ccc(-c2cnn(CC(F)(F)F)c(=O)c2N)cc1 [Example 294, 2-(2,2,2-Trifluoroethyl)-4-amino-5-[4-(methylsulfonyl)phenyl]-3(2H)-pyridazinone]
> 250 °C	CS(=O)(=O)c1ccc(-c2cnn(Cc3ccccc3)c(=O)c2-c2ccc3c(c2)COC3=O)cc1 [Example 319, 2-Benzyl-4-(1-oxo-1,3-dihydro-2-benzofuran-5-yl)-5-[4-(methylsulfonyl)phenyl]-3(2H)-pyridazinone]
140 to 149 °C	CS(=O)(=O)c1ccc(-c2cnn(-c3cccc(Cl)c3)c(=O)c2SCc2ccco2)cc1 [Example 360, 2-(3-Chlorophenyl)-4-(2-furylmethylthio)-5-[4-(methylsulfonyl)phenyl]-3(2H)-pyridazinone]
242 to 244 °C	Cc1ccc(-c2c(-c3ccc(S(C)(=O)=O)cc3)cnn(-c3ccc(F)cc3)c2=O)cc1 [Example 229, 2-(4-Fluorophenyl)-4-(4-methylphenyl)-5-[4-(methylsulfonyl)-phenyl]-3(2H)-pyridazinone]
161 to 164 °C	CC(C)Oc1c(-c2ccc(S(C)(=O)=O)cc2)cnn(-c2cc(F)ccc2F)c1=O [Example 204, 2-(2,5-Difluorophenyl)-4-(2-propoxy)-5-[4-(methylsulfonyl)phenyl]-3(2H)-pyridazinone]
